Data on 20 compounds can be found in patent US8183371B2, “Pyrazines as delta opioid receptor modulators” (Janssen Pharmaceutica NV, priority 2009, dated 2012).

For one test, the target named is T1, δ-opioid receptor (Mus musculus, UniProt P32300).
T1 construct: NG108-15 cell membranes were purchased from Applied Cell Sciences (Rockville, Md.); host or cells: NG108-15 cell membranes (purchased)
Nature of the test: [35S]GTPγS binding assay in NG108-15 cell membranes (delta opioid functional assay). The format is biochemical. To be noted: for EC50: read-out: GTPγS δ-opioid receptor EC50; for GTPγS δ-RelEfficacy @200 nM: 200 nM compound, relative to calculated max of SNC80 dose response. Here is the method: Methods: NG108-15 cell membranes were purchased from Applied Cell Sciences (Rockville, Md.). 5 mg/mL of membrane protein was suspended in 10 mM TRIS-HCl pH 7.2, 2 mM EDTA, 10% sucrose. Membranes were maintained at 4-8° C. A 1 mL volume of membranes was added into 10 mL cold binding assay buffer. The assay buffer contained 50 mM Tris, pH 7.6, 5 mM MgCl2, 100 mM NaCl, 1 mM DTT and 1 mM EGTA. The membrane suspension was homogenized twice with a Polytron, and centrifuged at 3000 rpm for 10 min. The supernatant was then centrifuged at 18,000 rpm for 20 min. Ten mL of assay buffer was added into the pellet containing tube. The pellet and buffer were mixed with a Polytron.
Incubation procedure: The pellet membranes (75 μg/mL) were preincubated with SPA beads (10 mg/mL) at 25° C. for 45 min in the assay buffer. The SPA beads (5 mg/mL) coupled with membranes (37.5 μg/mL) were then incubated with 0.1 nM [^35S]GTPγS in the same Tris buffer containing 100 μM GDP in total volume of 200 μL. 200 nM of receptor agonists was used to stimulate [^35S]-GTPγS binding. The basal binding was tested in the absence of agonists and non-specific binding was tested in the presence of 10 μM unlabeled GTPγS.
Data % of Basal=(stimulated−non specific)*100/(basal−non specific). Relative Efficacy of a compound at 200 nM=(% of Basal of test compound at 200 nM)/(Calculated Max of SNC80 dose response. Curve in prism).

The next test deals with T2, delta opioid receptor (Rattus norvegicus, UniProt P33533).
T2 construct: from tissue; host or cells: forebrain of male Wistar rats
Nature of the test: Rat brain delta opioid receptor binding assay. Here is the method: Procedure: Male, Wistar rats (150-250 g, VAF, Charles River, Kingston, N.Y.) were killed by CO2, and their brains were removed and placed immediately in ice cold Tris HCl buffer (50 mM, pH 7.4). The forebrains were separated from the remainder of the brain by a coronal transection, beginning dorsally at the colliculi and passing ventrally through the midbrain-pontine junction. After dissection, the forebrains were homogenized in Tris buffer in a Teflon®-glass homogenizer. The homogenate was diluted to a concentration of 1 g of forebrain tissue per 80 mL Tris and centrifuged at 39,000×g for 10 min. The pellet was resuspended in the same volume of Tris buffer containing 5 mM MgCl2 with several brief pulses from a Polytron homogenizer. This particulate preparation was used for the delta opioid binding assays. Following incubation with the delta selective peptide ligand ˜4 nM [^3H]DPDPE or 0.25 nM [^3H]naltrindole at 25° C. for 2.5 h in a 96-well plate with total volume of 1 mL, the plate contents were filtered through Wallac filtermat B sheets on a Tomtec 96-well harvester. The filters were rinsed three times with 2 mL of 10 mM HEPES (pH 7.4), and dried in a 650 W microwave oven for 1.75 min twice. To each sample area 2×50 μL of Betaplate Scint scintillation fluid (LKB) was added and the radioactivity was quantified on a LKB (Wallac) 1205 BetaPlate liquid scintillation counter.
Analysis: The data from the scintillation counter were used to calculate either the % inhibition compared to control binding (when only a single concentration of test compound was evaluated) or a Ki value (when a range of concentrations was tested). Percent inhibition was calculated as: [(total dpm−test compound dpm)/(total dpm−nonspecific dpm)]*100. Kd and Ki values were calculated using GraphPad PRISM data analysis program.

The mark [1] stands for this setting: rat forebrain membranes, ~4 nM [3H]DPDPE, read-out: δ-binding (DPDPE ligand) Ki.
Setting [2] is: [3H]naltrindole ligand, read-out: δ-binding (Naltrindole ligand) Ki.

What is called EC50 is the concentration at which the effect is half-maximal. Usually Ki stands for the dissociation constant of the complex between target and ligand, obtained from inhibition or displacement.

Structures are written as SMILES. Where two headings read alike, the source gives them in different places.

T2 sequence (P33533 whole entry): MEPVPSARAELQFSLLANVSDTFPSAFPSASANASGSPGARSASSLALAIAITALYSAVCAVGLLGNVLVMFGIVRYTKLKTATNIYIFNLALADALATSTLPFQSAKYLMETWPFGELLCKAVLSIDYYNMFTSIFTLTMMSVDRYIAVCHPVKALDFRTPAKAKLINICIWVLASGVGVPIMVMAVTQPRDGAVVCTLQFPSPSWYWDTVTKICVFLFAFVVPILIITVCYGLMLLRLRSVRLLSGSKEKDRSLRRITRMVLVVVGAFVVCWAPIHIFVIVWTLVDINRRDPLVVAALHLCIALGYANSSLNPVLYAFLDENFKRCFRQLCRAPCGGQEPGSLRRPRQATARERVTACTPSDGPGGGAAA
T1 sequence (P32300 whole entry): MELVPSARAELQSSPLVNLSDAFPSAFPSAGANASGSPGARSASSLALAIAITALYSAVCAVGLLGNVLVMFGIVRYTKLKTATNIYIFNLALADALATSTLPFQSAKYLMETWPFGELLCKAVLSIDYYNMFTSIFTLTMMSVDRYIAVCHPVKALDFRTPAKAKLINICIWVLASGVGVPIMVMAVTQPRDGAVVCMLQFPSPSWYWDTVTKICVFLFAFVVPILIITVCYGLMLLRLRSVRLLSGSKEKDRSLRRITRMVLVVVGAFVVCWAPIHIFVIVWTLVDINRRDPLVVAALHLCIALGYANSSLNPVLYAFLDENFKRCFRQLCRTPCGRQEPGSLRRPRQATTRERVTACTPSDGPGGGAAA

`COc1ccc(Oc2nc(-c3cncnc3)cnc2NC[C@@H]2CCCN2)cc1` [Cpd 5]: at δ-opioid receptor, the “GTPγS δ-opioid receptor Rel Efficacy” value is on record as 1.0984 and the EC50 worked out at 349 nM. At delta opioid receptor (setting [1]), the Ki amounted to 2.7 nM.
On the same counts, the results for `CCc1ccc(Oc2nc(-c3cncnc3)cnc2NC[C@@H]2CCCN2)cc1` [Cpd 6] are 1.1553, 460 nM and 32.3 nM.
As to `c1ncc(-c2cnc(NC[C@@H]3CCCN3)c(Oc3ccc4c(c3)OCO4)n2)cn1` [Cpd 7], at delta opioid receptor (setting [1]), the inhibition constant (Ki) worked out at 491 nM.
In the case of `COc1ccc(Oc2nc(-c3cncnc3)cnc2NC[C@@H]2CCCN2)c(F)c1` [Cpd 9], on δ-opioid receptor, the “GTPγS δ-opioid receptor Rel Efficacy” value stood at 1.1022 and the EC50 amounted to 281 nM. Also, the Ki at delta opioid receptor (setting [1]) was determined as 1.2 nM.
As to `Clc1ccc(Oc2nc(-c3cncnc3)cnc2NC[C@@H]2CCCN2)cc1` [Cpd 10], the “GTPγS δ-RelEfficacy @200 nM” value at δ-opioid receptor is recorded as 0.2150. Also, the Ki on delta opioid receptor (setting [2]) stood at 1.1 nM.
On the same counts, the results for `Clc1cccc(Oc2nc(-c3cncnc3)cnc2NC[C@@H]2CCCN2)c1` [Cpd 11] are 0.2102 and 1.8 nM.
The corresponding values for `Clc1ccccc1Oc1nc(-c2cncnc2)cnc1NC[C@@H]1CCCN1` [Cpd 12, [3-(2-Chloro-phenoxy)-5-pyrimidin-5-yl-pyrazin-2-yl]-pyrrolidin-2-(S)-ylmethyl-amine] are 0.2356 and 0.7 nM.
For the compound `CC(=O)Nc1cccc(Oc2nc(-c3cncnc3)cnc2NC[C@@H]2CCCN2)c1` [Cpd 13], the “GTPγS δ-RelEfficacy @200 nM” value on δ-opioid receptor is given as 0.0800. The Ki at delta opioid receptor (setting [2]) was 4 nM.
For `c1cn(-c2ccc(Oc3nc(-c4cncnc4)cnc3NC[C@@H]3CCCN3)cc2)cn1` [Cpd 14], at delta opioid receptor (setting [2]), the Ki was 411 nM.
Same read-out and setting: then `Oc1cccc(Oc2nc(-c3cncnc3)cnc2NC[C@@H]2CCCN2)c1` [Cpd 15, 3-{6-Pyrimidin-5-yl-3-[(pyrrolidin-2-(S)-ylmethyl)-amino]-pyrazin-2-yloxy}-phenol], with 0.4 nM.
Turning to `COc1ccc(Cc2nc(-c3cccnc3)cnc2NC[C@@H]2CCCN2)cc1` [Cpd 16], at δ-opioid receptor, the “GTPγS δ-opioid receptor Rel Efficacy” value worked out at 0.3985 and the EC50 is 7320 nM. On delta opioid receptor (setting [2]), the Ki was found to be 15 nM.
In the case of `COc1ccc(Cc2nc(-c3cncnc3)cnc2NC[C@@H]2CCCN2)cc1` [Cpd 17, [3-(4-Methoxy-benzyl)-5-pyrimidin-5-yl-pyrazin-2-yl]-pyrrolidin-2-(S)-ylmethyl-amine], the “GTPγS δ-RelEfficacy @200 nM” value on δ-opioid receptor is reported as 0.1065. The Ki at delta opioid receptor (setting [2]) was 19.9 nM.
The corresponding values for `N#Cc1ccc(Oc2nc(-c3cncnc3)cnc2NC[C@@H]2CCCN2)cc1` [Cpd 18] are 0.1065 and 76.4 nM.
In the case of `COc1ccc(Oc2nc(-c3cncc(C#N)c3)cnc2NC[C@H](C)N)cc1` [Cpd 19], the Ki on delta opioid receptor (setting [2]) turned out to be 0.3 nM.
`COc1ccc(Oc2nc(-c3cncnc3)cnc2NC[C@H](C)N)cc1` [Cpd 20]: on δ-opioid receptor, the “GTPγS δ-opioid receptor Rel Efficacy” value is 1.0287, the “GTPγS δ-RelEfficacy @200 nM” value was 0.6890 and the EC50 was 50.5 nM. On delta opioid receptor (setting [2]), the Ki was 0.6 nM.
Take `c1ncc(-c2cnc(NC[C@@H]3CCCN3)c(Oc3ccc4c(c3)CCO4)n2)cn1` [Cpd 33]: on delta opioid receptor (setting [2]), the Ki worked out at 4.3 nM.
In turn, `COc1ccc(Oc2nc(-c3cncc(C#N)c3)cnc2N[C@H]2CC[C@H](N)CC2)cc1` [Cpd 34] gave a Ki at delta opioid receptor of 0.7 nM.
Turning to `N#Cc1cncc(-c2cnc(NC[C@@H]3CCCN3)c(Oc3ccc4[nH]ccc4c3)n2)c1` [Cpd 40], at δ-opioid receptor, the “GTPγS δ-opioid receptor Rel Efficacy” value turned out to be 1.1190, the “GTPγS δ-RelEfficacy @200 nM” value is recorded as 0.6606 and the EC50 worked out at 39.3 nM.
In the case of `N#Cc1cncc(-c2cnc(NC[C@@H]3CCCN3)c(Oc3ccccc3Cl)n2)c1` [Cpd 41], on δ-opioid receptor, the “GTPγS δ-opioid receptor Rel Efficacy” value came out at 1.2922, the “GTPγS δ-RelEfficacy @200 nM” value is 0.3049 and the EC50 was found to be 298 nM.
The corresponding values for `N#Cc1cncc(-c2cnc(NC[C@@H]3CCCN3)c(Oc3cccc(Cl)c3)n2)c1` [Cpd 42] are 1.1894, 0.7111 and 84.4 nM.
